In patent publication US5491167A, “Hexahydronaphthalene ester derivatives, their preparation and their therapeutic uses” (Sankyo Company, Limited, priority 1993, dated 1996):
Structures can show the parent of a compound that is named as a salt.

Biological target: T1, HMG-CoA reductase (Rattus norvegicus, UniProt P51639)
T1 construct: an enzyme solution (rat liver microsomal fraction); from tissue; host or cells: rat liver microsomal fraction
T1 sequence (P51639 1-887): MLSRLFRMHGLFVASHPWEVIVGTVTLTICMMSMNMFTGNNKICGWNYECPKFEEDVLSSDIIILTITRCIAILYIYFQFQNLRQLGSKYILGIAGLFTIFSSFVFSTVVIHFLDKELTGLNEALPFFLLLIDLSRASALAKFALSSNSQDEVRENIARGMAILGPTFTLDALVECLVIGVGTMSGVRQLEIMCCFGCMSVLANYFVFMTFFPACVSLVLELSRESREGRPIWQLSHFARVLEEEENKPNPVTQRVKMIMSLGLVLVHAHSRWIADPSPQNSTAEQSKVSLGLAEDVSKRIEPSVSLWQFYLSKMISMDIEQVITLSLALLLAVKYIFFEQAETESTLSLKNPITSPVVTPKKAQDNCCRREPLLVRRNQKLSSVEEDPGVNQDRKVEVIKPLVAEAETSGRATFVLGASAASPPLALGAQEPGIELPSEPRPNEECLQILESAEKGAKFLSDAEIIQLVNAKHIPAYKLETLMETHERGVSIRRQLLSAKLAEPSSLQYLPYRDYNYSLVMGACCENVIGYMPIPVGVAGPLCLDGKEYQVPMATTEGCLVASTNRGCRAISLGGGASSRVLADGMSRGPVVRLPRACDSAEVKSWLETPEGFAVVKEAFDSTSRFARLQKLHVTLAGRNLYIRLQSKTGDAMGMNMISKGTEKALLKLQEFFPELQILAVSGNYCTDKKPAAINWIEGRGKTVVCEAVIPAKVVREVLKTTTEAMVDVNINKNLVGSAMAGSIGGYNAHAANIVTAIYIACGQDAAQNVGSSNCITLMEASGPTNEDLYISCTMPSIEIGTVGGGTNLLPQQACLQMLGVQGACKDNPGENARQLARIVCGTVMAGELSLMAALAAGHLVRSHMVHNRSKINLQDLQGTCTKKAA
Assay: Determination of HMG-CoA Reductase Inhibitory Activity
Type: biochemical
Details: rat liver microsomal fraction, 0.2 mM [14C]HMG-CoA, pH7.4, 15 minutes at 37° C
Experimental: The ability of the preferred test compounds to inhibit the activity of HMG-CoA reductase was determined by the method of Koga et al. [Eur. J. Biochem. 209, 315-319 (1992)], the improved procedure of Kuroda et al. [Biochem. Biophys, Acta, 485, 70-81 (1977)] which a modification of the method of Shapiro et al. [Anal. Biochem. 31, 383-390, (1969)].
A solution of 5 μl of the preferred test compound dissolved in distilled water was added to 45 μl of a reaction mixture containing 100 mM of a potassium phosphate buffer (pH7.4), 0.2 mM of [^14 C]HMG-CoA, 10 mM of ethylenediaminetetraacetic acid disodium salt, 10 mM of dithiothreitol, 10 mM of NADPH (=reduced nicotinamide adenine dinucleotide phosphate) and an enzyme solution (rat liver microsomal fraction). The concentrations are expressed in terms of the final 50 μl of assay mixture. The resulting mixture was incubated for 15 minutes at 37° C. The reaction was then terminated by adding 10 μl of 2N aqueous hydrochloric acid, to lactonize the [^14 C]mevalonate produced. After 15 minutes incubation, 1 ml of a 1:1 by volume aqueous suspension of Biorex-5 was added and the tubes were vigorously mixed using a Vortex mixer. […] The supernatant (400 μl) was mixed with 4.5 ml of Optiflow™ in scintillation vials and the activity of the [^14 C]mevalonolactone was determined by a liquid scintillation counter.

| IC50 [nM] | SMILES |
| --- | --- |
| 33.5 | CCC(Oc1c(C)cccc1C)C(=O)O[C@H]1C[C@H](O)C=C2C=C[C@H](C)[C@H](CC[C@@H](O)C[C@@H](O)CC(=O)O)[C@H]21 (stereo partly drawn) [Example 6, Sodium salt of (3R,5R)-3,5-dihydroxy-7-{(1S,2S,6S,8S,8aR)-1,2,6,7,8,8a-hexahydro-6-hydroxy-8-[(2RS)-2-(2,6-dimethylphenoxy)butyryloxy]-2-methyl-1-naphthyl}heptanoicacid] |
| 30.6 | CCC(Oc1ccc(C)cc1)C(=O)O[C@H]1C[C@H](O)C=C2C=C[C@H](C)[C@H](CC[C@@H](O)C[C@@H](O)CC(=O)O)[C@H]21 (stereo partly drawn) [Example 3, Sodium Salt of (3R,5R)-3,5-dihydroxy-7-{(1S,2S,6S,8S,8aR)-1,2,6,7,8,8a-hexahydro-6-hydroxy-8-[(2RS)-2-(4-methylphenoxy)butyryloxy]-2-methyl-1-naphthyl}heptanoic acid] |
